Test results published in patent US20210251963A1, “UREA DERIVATIVES FOR USE IN THE TREATMENT OF SUBJECTS WITH ELEVATED EXPRESSION AND/OR ACTIVITY OF SRPK1” (Scandion Oncology A/S, priority 2018, published 2021).

Legend:
Assay in all cases: Premier Screen kinase activity screening (33P ATP filter binding)
Assay type in all cases: biochemical
Details in all cases: 10 μM SCO-101, mean of assay duplicates, read-out: Kinase activity (percentage of DMSO control)
[1] = target: T1, TIE2 (Homo sapiens, UniProt Q02763)
T1 construct: MRC Dundee (screening service)
Text: (§1) The kinase activity screening was done at MRC in Dundee. The screen was a so-called “Premier Screen” with 140 kinases. More specific information can be found here: http://www.kinase-screen.mrc.ac.uk/services/premier-screen
(§2) The method is based on a radioactive filter binding assay using 33P ATP (Hastie, et al 2006. Nat Protoc. 2006; 1(2):968-71; Bain, et al 2007. Biochem J. 2007 Dec. 15; 408(3):297-315). This method is sensitive, accurate and provides a direct measure of kinase enzyme activity. A concentration of 10 μM SCO-101 was used.
(§3) In the table below, the data is portrayed as the mean percentage activity of assay duplicates and a standard deviation. These percentage activities were calculated in comparison to DMSO controls. 10 μM SCO-101 reduced the activity of SRPK1 to 6% of the DMSO control.

[2] = target: MST4 (Homo sapiens, UniProt Q9P289)
Text: as §1, §2, §3

[3] = target: T2, PAK2 (Homo sapiens, UniProt Q13177)
T2 construct: MRC in Dundee (screening service)
Text: as §1, §2, §3

[4] = target: EPH-B2 (Homo sapiens, UniProt P29323)
Text: as §1, §2, §3

[5] = target: T3, MST3 (Homo sapiens, UniProt Q9Y6E0)
T3 construct: purchased MRC in Dundee (Premier Screen service)
Text: as §1, §2, §3

[6] = target: T4, MLK3 (Homo sapiens, UniProt Q16584)
T4 construct: purchased MRC Dundee, Premier Screen (contract screening service)
Text: as §1, §2, §3

[7] = target: T5, BRSK2 (Homo sapiens, UniProt Q8IWQ3)
T5 construct: MRC in Dundee (screening service)
Text: as §1, §2, §3

[8] = target: T6, MNK2 (Homo sapiens, UniProt Q9HBH9)
T6 construct: purchased MRC Dundee, Premier Screen (contract screening service)
Text: as §1, §2, §3

[9] = target: T7, PLK1 (Homo sapiens, UniProt P53350)
T7 construct: purchased MRC in Dundee (Premier Screen service)
Text: as §1, §2, §3

[10] = target: T8, SIK2 (Homo sapiens, UniProt Q9H0K1)
T8 construct: MRC in Dundee (screening service)
Text: as §1, §2, §3

[11] = target: T9, PAK4 (Homo sapiens, UniProt O96013)
T9 construct: purchased MRC in Dundee (Premier Screen service)
Text: as §1, §2, §3

[12] = target: ULK1 (Homo sapiens, UniProt O75385)
Text: as §1, §2, §3

[13] = target: T10, DDR2 (Homo sapiens, UniProt Q16832)
T10 construct: purchased MRC in Dundee (Premier Screen service)
Text: as §1, §2, §3

[14] = target: CHK2 (Homo sapiens, UniProt O96017)
Text: as §1, §2, §3

[15] = target: T11, CAMKKb (Homo sapiens, UniProt Q96RR4)
T11 construct: MRC in Dundee (screening service)
Text: as §1, §2, §3

[16] = target: T12, TTBK1 (Homo sapiens, UniProt Q5TCY1)
T12 construct: MRC in Dundee (screening service)
Text: as §1, §2, §3

[17] = target: T13, SGK1 (Homo sapiens, UniProt O00141, S422D)
T13 construct: purchased MRC Dundee, Premier Screen (contract screening service)
Text: as §1, §2, §3

[18] = target: T14, MST2 (Homo sapiens, UniProt Q13188)
T14 construct: purchased MRC in Dundee (Premier Screen service)
Text: as §1, §2, §3

[19] = target: T15, CLK2 (Homo sapiens, UniProt P49760)
T15 construct: MRC in Dundee (screening service)
Text: as §1, §2, §3

[20] = target: T16, PIM2 (Homo sapiens, UniProt Q9P1W9)
T16 construct: purchased MRC in Dundee (Premier Screen service)
Text: as §1, §2, §3

[21] = target: T17, p38a MAPK (Homo sapiens, UniProt Q16539)
T17 construct: purchased MRC in Dundee (Premier Screen service)
Text: as §1, §2, §3

[22] = target: PAK5 (Homo sapiens, UniProt Q9P286)
Text: as §1, §2, §3

[23] = target: T18, NUAK1 (Homo sapiens, UniProt O60285)
T18 construct: purchased MRC in Dundee (Premier Screen service)
Text: as §1, §2, §3

[24] = target: ERK2 (Homo sapiens, UniProt P28482)
Text: as §1, §2, §3

[25] = target: MKK1 (Homo sapiens, UniProt Q02750)
Text: as §1, §2, §3

[26] = target: T19, IRR (Homo sapiens, UniProt P14616)
T19 construct: purchased MRC in Dundee (Premier Screen service)
Text: as §1, §2, §3

[27] = target: T20, CHK1 (Homo sapiens, UniProt O14757)
T20 construct: purchased MRC in Dundee (Premier Screen service)
Text: as §1, §2, §3

[28] = target: T21, TGFBR1 (Homo sapiens, UniProt P36897)
T21 construct: purchased MRC Dundee, Premier Screen (contract screening service)
Text: as §1, §2, §3

[29] = target: p38b MAPK (Homo sapiens, UniProt Q15759)
Text: as §1, §2, §3

[30] = target: EPH-B3 (Homo sapiens, UniProt P54753)
Text: as §1, §2, §3

[31] = target: JAK3 (Homo sapiens, UniProt P52333)
Text: as §1, §2, §3

[32] = target: T22, PKBb (Homo sapiens, UniProt P31751)
T22 construct: MRC in Dundee (screening service)
Text: as §1, §2, §3

[33] = target: T23, TSSK1 (Homo sapiens, UniProt Q9BXA7)
T23 construct: MRC in Dundee (screening service)
Text: as §1, §2, §3

[34] = target: T24, ZAP70 (Homo sapiens, UniProt P43403)
T24 construct: MRC Dundee (screening service)
Text: as §1, §2, §3

[35] = target: T25, JNK1 (Homo sapiens, UniProt P45983)
T25 construct: purchased MRC Dundee, Premier Screen (contract screening service)
Text: as §1, §2, §3

[36] = target: T26, HIPK1 (Homo sapiens, UniProt Q86Z02)
T26 construct: MRC Dundee (screening service)
Text: as §1, §2, §3

Chain of EPH-B3 (P54753 34-998, species assumed): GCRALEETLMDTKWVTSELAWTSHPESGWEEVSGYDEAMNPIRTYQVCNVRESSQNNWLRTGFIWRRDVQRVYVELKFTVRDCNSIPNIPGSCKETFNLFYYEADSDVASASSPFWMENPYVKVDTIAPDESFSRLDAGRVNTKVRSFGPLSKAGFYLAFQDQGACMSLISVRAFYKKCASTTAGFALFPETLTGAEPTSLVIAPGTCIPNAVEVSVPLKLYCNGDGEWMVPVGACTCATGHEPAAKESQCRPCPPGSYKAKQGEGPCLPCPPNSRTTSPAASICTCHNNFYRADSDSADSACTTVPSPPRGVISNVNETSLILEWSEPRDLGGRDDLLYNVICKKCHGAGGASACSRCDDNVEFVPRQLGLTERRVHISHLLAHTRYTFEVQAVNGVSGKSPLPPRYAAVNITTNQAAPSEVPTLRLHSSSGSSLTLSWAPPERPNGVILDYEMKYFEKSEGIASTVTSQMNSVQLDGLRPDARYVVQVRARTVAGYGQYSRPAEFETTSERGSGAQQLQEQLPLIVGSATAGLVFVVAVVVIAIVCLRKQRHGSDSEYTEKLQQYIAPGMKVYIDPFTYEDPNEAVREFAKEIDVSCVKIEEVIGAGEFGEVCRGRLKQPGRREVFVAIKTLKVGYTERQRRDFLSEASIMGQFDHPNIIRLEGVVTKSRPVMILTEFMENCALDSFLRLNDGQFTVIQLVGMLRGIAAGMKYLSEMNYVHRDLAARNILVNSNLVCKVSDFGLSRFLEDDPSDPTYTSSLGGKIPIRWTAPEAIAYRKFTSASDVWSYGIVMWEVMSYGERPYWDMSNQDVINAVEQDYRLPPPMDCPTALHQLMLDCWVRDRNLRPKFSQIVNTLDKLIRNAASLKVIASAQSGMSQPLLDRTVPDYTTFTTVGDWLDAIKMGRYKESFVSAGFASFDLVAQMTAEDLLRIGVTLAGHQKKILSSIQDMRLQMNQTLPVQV
Chain of MST4 (Q9P289 whole entry, species assumed): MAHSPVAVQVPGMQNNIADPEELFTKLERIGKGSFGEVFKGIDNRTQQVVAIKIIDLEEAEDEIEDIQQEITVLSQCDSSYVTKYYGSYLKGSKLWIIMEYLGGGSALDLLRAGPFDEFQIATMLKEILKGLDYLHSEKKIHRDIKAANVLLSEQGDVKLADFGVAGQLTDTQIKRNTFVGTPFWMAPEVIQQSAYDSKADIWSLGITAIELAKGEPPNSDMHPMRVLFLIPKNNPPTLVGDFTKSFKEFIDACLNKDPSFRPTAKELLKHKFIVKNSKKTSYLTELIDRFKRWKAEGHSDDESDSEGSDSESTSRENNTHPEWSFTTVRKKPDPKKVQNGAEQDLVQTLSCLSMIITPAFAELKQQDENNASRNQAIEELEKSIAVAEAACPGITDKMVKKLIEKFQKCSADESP
T14 sequence (Q13188 whole entry, species assumed): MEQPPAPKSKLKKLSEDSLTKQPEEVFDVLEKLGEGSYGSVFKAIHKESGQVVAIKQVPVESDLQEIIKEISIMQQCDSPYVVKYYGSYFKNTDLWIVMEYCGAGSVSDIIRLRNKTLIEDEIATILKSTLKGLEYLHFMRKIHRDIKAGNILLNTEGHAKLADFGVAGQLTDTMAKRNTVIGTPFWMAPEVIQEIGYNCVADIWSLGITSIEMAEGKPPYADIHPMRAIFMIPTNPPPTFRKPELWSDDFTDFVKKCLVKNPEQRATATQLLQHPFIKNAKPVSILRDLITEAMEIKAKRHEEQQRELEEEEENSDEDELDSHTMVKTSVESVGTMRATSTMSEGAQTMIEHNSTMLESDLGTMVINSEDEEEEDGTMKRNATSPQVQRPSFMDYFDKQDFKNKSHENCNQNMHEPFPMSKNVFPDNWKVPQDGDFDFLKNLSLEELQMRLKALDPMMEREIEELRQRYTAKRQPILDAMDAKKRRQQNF
T18 sequence (O60285 whole entry, species assumed): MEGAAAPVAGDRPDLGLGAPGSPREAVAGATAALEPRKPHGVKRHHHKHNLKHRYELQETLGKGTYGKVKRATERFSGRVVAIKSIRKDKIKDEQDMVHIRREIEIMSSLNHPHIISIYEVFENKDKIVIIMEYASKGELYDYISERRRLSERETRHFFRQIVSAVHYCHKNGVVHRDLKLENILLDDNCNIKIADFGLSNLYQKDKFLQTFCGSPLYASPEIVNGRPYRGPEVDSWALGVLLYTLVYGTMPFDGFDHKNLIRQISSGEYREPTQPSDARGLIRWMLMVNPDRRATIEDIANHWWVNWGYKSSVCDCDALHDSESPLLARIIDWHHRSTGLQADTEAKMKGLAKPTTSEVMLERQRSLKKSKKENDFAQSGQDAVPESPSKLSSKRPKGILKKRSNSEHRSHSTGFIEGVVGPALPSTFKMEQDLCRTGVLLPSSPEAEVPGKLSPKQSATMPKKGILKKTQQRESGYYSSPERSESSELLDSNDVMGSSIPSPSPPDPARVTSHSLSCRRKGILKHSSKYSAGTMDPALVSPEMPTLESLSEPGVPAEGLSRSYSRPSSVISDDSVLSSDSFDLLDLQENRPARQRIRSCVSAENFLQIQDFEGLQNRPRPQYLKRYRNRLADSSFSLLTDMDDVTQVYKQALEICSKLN
T26 sequence (Q86Z02 whole entry, species assumed): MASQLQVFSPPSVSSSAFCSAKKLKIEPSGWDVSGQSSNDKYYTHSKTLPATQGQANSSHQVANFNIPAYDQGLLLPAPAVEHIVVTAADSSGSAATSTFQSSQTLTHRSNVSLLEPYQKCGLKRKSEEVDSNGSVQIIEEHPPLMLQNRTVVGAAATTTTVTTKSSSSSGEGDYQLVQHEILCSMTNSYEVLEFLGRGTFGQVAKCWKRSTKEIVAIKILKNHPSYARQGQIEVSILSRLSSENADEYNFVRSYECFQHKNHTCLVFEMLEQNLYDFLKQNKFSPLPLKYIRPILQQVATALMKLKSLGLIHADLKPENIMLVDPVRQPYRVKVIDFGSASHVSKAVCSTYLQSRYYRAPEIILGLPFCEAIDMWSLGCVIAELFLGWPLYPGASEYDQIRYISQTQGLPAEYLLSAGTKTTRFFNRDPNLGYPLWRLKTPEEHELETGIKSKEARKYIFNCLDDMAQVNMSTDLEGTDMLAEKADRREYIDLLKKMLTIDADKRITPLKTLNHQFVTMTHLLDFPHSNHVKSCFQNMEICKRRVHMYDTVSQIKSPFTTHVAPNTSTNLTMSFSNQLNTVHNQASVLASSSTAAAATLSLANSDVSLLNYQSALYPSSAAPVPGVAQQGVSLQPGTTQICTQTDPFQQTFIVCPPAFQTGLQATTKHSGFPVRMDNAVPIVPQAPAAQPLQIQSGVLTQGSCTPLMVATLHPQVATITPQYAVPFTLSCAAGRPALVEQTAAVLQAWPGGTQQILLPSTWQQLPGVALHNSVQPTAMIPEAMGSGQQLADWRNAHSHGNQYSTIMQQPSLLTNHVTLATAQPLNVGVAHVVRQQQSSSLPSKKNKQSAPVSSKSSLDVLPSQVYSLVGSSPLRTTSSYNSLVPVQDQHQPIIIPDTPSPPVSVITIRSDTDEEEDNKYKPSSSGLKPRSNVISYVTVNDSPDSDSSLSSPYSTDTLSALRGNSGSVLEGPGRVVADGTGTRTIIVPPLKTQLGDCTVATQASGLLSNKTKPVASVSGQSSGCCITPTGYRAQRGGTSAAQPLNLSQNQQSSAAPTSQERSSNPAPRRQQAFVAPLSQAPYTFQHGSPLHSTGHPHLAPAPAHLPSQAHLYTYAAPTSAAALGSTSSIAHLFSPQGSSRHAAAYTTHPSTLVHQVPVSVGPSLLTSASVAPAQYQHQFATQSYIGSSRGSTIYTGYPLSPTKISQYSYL
T21 sequence (P36897 34-503, species assumed): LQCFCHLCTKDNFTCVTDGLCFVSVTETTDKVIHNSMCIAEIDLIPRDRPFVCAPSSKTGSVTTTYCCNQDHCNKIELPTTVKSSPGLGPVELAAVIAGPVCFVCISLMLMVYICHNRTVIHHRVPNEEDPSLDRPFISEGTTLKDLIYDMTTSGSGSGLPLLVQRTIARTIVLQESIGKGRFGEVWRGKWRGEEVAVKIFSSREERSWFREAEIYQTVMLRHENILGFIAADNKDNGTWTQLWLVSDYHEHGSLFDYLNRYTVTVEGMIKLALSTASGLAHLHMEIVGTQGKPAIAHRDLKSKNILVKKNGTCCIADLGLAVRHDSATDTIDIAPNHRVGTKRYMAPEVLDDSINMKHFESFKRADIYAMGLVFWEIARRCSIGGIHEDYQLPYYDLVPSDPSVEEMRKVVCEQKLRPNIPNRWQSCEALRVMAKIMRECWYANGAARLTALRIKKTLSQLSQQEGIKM
T25 sequence (P45983 whole entry, species assumed): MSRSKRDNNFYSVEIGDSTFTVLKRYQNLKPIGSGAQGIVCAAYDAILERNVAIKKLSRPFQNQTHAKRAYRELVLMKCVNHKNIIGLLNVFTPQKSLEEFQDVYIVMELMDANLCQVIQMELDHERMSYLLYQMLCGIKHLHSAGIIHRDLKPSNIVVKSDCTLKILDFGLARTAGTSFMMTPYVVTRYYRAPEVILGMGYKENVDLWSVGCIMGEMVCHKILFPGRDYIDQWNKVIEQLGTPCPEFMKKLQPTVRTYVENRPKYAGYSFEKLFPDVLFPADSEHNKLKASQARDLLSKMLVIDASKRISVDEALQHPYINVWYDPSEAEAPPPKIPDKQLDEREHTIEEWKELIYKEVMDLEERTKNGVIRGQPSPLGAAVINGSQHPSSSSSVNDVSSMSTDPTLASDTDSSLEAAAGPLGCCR
T13 sequence (O00141 60-431 S422D limits assumed, species assumed): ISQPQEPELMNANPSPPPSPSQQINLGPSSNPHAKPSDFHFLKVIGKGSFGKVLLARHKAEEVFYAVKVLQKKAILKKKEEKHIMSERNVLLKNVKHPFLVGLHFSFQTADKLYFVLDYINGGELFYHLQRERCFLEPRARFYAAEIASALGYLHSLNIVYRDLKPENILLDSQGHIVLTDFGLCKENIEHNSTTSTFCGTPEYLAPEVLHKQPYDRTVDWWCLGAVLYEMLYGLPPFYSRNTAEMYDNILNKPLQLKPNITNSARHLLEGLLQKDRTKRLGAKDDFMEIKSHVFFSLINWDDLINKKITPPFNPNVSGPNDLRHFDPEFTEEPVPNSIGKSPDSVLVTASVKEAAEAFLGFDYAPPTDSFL

O=C(Nc1cc(C(F)(F)F)cc(C(F)(F)F)c1)Nc1ccc(Br)cc1-c1nnn[nH]1 [SCO-101]
remaining activity at 10 µM [1]: 95%
remaining activity at 10 µM [2]: 117%
remaining activity at 10 µM [3]: 83%
remaining activity at 10 µM [4]: 117%
remaining activity at 10 µM [5]: 135%
remaining activity at 10 µM [6]: 110%
remaining activity at 10 µM [7]: 81%
remaining activity at 10 µM [8]: 104%
remaining activity at 10 µM [9]: 59%
remaining activity at 10 µM [10]: 81%
remaining activity at 10 µM [11]: 38%
remaining activity at 10 µM [12]: 114%
remaining activity at 10 µM [13]: 68%
remaining activity at 10 µM [14]: 114%
remaining activity at 10 µM [15]: 94%
remaining activity at 10 µM [16]: 94%
remaining activity at 10 µM [17]: 103%
remaining activity at 10 µM [18]: 146%
remaining activity at 10 µM [19]: 86%
remaining activity at 10 µM [20]: 72%
remaining activity at 10 µM [21]: 63%
remaining activity at 10 µM [22]: 121%
remaining activity at 10 µM [23]: 49%
remaining activity at 10 µM [24]: 119%
remaining activity at 10 µM [25]: 118%
remaining activity at 10 µM [26]: 131%
remaining activity at 10 µM [27]: 195%
remaining activity at 10 µM [28]: 111%
remaining activity at 10 µM [29]: 115%
remaining activity at 10 µM [30]: 114%
remaining activity at 10 µM [31]: 121%
remaining activity at 10 µM [32]: 84%
remaining activity at 10 µM [33]: 83%
remaining activity at 10 µM [34]: 99%
remaining activity at 10 µM [35]: 105%
remaining activity at 10 µM [36]: 98%
